Experimental data taken from the supplement of paper PMC11208160.

Assay: recombinant barcode read abundance after kanamycin selection (control-corrected) (log10(CPM+1)); higher = more efficient recombination; sequences stand for … in AGTGCAGAGAAAATCGGCCAGTTTTCTCTGCCTGCAGTCCGCATGCCGT…AGATTTATGCAGCGGACTGCCTTTCTCCCAAAGTGATAAACCGGACAGTATCATGGACCGGTTTTCCCGGTAATCCGTATTTGCAAGGTTGGTTTCACT; site = the 11-nt target
Method in brief: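 Pooled oligos, each joining a target to an IS621 bridge RNA target-binding loop, were cloned and co-electroporated with a donor plasmid into E. coli. Selective plates carried chloramphenicol/ampicillin/kanamycin and 0.1 mM IPTG, while chloramphenicol/ampicillin LB agar served as control, with two replicates of each. Recombination efficiency rests on averaged, control-corrected counts per million of barcodes at recombinant junctions, shown as log10(CPM+1).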
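Also: IS621 recombinase and bridge RNA in Escherichia coli cells.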

Row | Sequence | recombinant barcode read abundance (log10)
1 | GGGACGACTTGGGTTCTAACCTGTTGCTT (site GGGACGACTAA) | 1.04
2 | GGGACGACTTGGGTTCTAACCTGTTGCTT (site GGGACGACTTA) | 0.0442
3 | GGGACTACTTGGGTTCTAACCTGTTGCCG (site ACTCGCTCTGT) | 0.0845
4 | GGGACTACTTGGGTTCTAACCTGTTGCCG (site GGGACTACTCG) | 0.876
5 | GGGATCCCTTGGGTTCTAACCTGTTGCGG (site CTCGAATCTAA) | 0.024
6 | GGGATCCCTTGGGTTCTAACCTGTTGCGG (site GGGATCCCTCC) | 2
7 | GGGCAGTCTTGGGTTCTAACCTGTTGCCG (site GGGCAGTCTCG) | 1.78
8 | GGGCAGTCTTGGGTTCTAACCTGTTGCCG (site GGGGCGTCTCG) | 0.14
9 | GGGCCCGCTTGGGTTCTAACCTGTTGCCT (site GGGCCCGCTAG) | 1.84
10 | GGGCCCGCTTGGGTTCTAACCTGTTGCCT (site GGGCCTGCTAG) | 0.154
11 | GGGCCTGCTTGGGTTCTAACCTGTTGCCT (site GGGCCCGCTAG) | 0.645
12 | GGGCCTGCTTGGGTTCTAACCTGTTGCCT (site GGGCCTGCTAG) | 2.1
13 | GGGGAAGCTTGGGTTCTAACCTGTTGCCT (site GAGGAAGCTAG) | 0.276
14 | GGGGAAGCTTGGGTTCTAACCTGTTGCCT (site GCGGAAGCTAG) | 0.343
15 | GGGGAAGCTTGGGTTCTAACCTGTTGCCT (site GGGGAAGCTAG) | 1.73
16 | GGGGAAGCTTGGGTTCTAACCTGTTGCCT (site GTGGAAGCTAG) | 0.291
17 | GGGGATCCTTGGGTTCTAACCTGTTGCGA (site GGGGAGCCTCC) | 0.00823
18 | GGGGATCCTTGGGTTCTAACCTGTTGCGA (site GGGGATCCTTC) | 2.06
19 | GGGGATTCTTGGGTTCTAACCTGTTGCCT (site GGGGATTCTAG) | 2.05
20 | GGGGATTCTTGGGTTCTAACCTGTTGCCT (site GTGGATGCTAG) | 0.0823
21 | GGGGCCTCTTGGGTTCTAACCTGTTGCAA (site AGGGCCTCTCT) | 0.474
22 | GGGGCCTCTTGGGTTCTAACCTGTTGCAA (site GGGGCCTCTTT) | 2.56

Row | Sequence | recombinant barcode read abundance (log10)
23 | GGGGCCTCTTGGGTTCTAACCTGTTGCTG (site GGAGCCTCTGA) | 0.0595
24 | GGGGCCTCTTGGGTTCTAACCTGTTGCTG (site GGGGCCTCTCA) | 3.02
25 | GGGGCTACTTGGGTTCTAACCTGTTGCAC (site GGGGCTACTAG) | 0.58
26 | GGGGCTACTTGGGTTCTAACCTGTTGCAC (site GGGGCTACTGT) | 2.62
27 | GGGGCTTCTTGGGTTCTAACCTGTTGCTT (site GGGGCATCTAA) | 0.129
28 | GGGGCTTCTTGGGTTCTAACCTGTTGCTT (site GGGGCCTCTAA) | 0.762
29 | GGGGCTTCTTGGGTTCTAACCTGTTGCTT (site GGGGCGTCTAA) | 0.343
30 | GGGGCTTCTTGGGTTCTAACCTGTTGCTT (site GGGGCTTCTAA) | 0.913
31 | GGGGTAACTTGGGTTCTAACCTGTTGCCT (site GGGACAACTAG) | 0.0486
32 | GGGGTAACTTGGGTTCTAACCTGTTGCCT (site GGGGTAACTAG) | 0.58
33 | GGGGTCCCTTGGGTTCTAACCTGTTGCCA (site GAGATCCCTTG) | 0.247
34 | GGGGTCCCTTGGGTTCTAACCTGTTGCCA (site GGGGTCCCTTG) | 1.8
35 | GGGTACACTTGGGTTCTAACCTGTTGCTA (site AGGTAGACTTA) | 0.0922
36 | GGGTACACTTGGGTTCTAACCTGTTGCTA (site GGGTACACTTA) | 2.12
37 | GGGTACCCTTGGGTTCTAACCTGTTGCCT (site GAGTACCCTAG) | 0.584
38 | GGGTACCCTTGGGTTCTAACCTGTTGCCT (site GCGTACCCTAG) | 0.126
39 | GGGTACCCTTGGGTTCTAACCTGTTGCCT (site GGGTACCCTAG) | 1.99
40 | GGGTACCCTTGGGTTCTAACCTGTTGCCT (site GTGTACCCTAG) | 0.133
41 | GGGTCGGCTTGGGTTCTAACCTGTTGCGC (site GGGTCGGCTAC) | 0.0769
42 | GGGTCGGCTTGGGTTCTAACCTGTTGCGC (site GGGTCGGCTCC) | 0.0276
43 | GGGTCGGCTTGGGTTCTAACCTGTTGCGC (site GGGTCGGCTGC) | 1.88
44 | GGGTCGGCTTGGGTTCTAACCTGTTGCGC (site GGGTCGGCTTC) | 0.0981

Row | Sequence | recombinant barcode read abundance (log10)
45 | GGGTCGGCTTGGGTTCTAACCTGTTGCGG (site GGGTCGGCTAC) | 0.147
46 | GGGTCGGCTTGGGTTCTAACCTGTTGCGG (site GGGTCGGCTCC) | 2.44
47 | GGGTCGGCTTGGGTTCTAACCTGTTGCGG (site GGGTCGGCTGC) | 0.0285
48 | GGGTCGGCTTGGGTTCTAACCTGTTGCGG (site GGGTCGGCTTC) | 0.609
49 | GGGTCGGCTTGGGTTCTAACCTGTTGCTG (site GGGTCGGCTCA) | 1.91
50 | GGGTCGGCTTGGGTTCTAACCTGTTGCTG (site GTCTCGGCTCA) | 0.0584
51 | GGTAAATCTTGGGTTCTAACCTGTTGCCT (site GGTAAATCTAG) | 0.459
52 | GGTAAATCTTGGGTTCTAACCTGTTGCCT (site GGTAAGTCTAG) | 0.359
53 | GGTAACCCTTGGGTTCTAACCTGTTGCGG (site GGTAACCCTCC) | 2.24
54 | GGTAACCCTTGGGTTCTAACCTGTTGCGG (site GGTCACCCTCC) | 0.0921
55 | GGTAACCCTTGGGTTCTAACCTGTTGCGG (site GGTGACCCTCC) | 0.106
56 | GGTAACCCTTGGGTTCTAACCTGTTGCGG (site GGTTACCCTCC) | 0.425
57 | GGTAAGACTTGGGTTCTAACCTGTTGCGG (site GCTAAGACTCA) | 0.0264
58 | GGTAAGACTTGGGTTCTAACCTGTTGCGG (site GGTAAGACTCC) | 1.64
59 | GGTACTCCTTGGGTTCTAACCTGTTGCGT (site GGTACGCCTAC) | 0.18
60 | GGTACTCCTTGGGTTCTAACCTGTTGCGT (site GGTACTCCTAC) | 0.913
61 | GGTAGGACTTGGGTTCTAACCTGTTGCGG (site AGTAGGCCTCC) | 0.0127
62 | GGTAGGACTTGGGTTCTAACCTGTTGCGG (site GGTAGGACTCC) | 2
63 | GGTATAACTTGGGTTCTAACCTGTTGCCA (site ACACCCTCTCT) | 0.124
64 | GGTATAACTTGGGTTCTAACCTGTTGCCA (site GGTATAACTTG) | 0.132
65 | GGTCCCGCTTGGGTTCTAACCTGTTGCCA (site GGGCCCGCTTA) | 0.485
66 | GGTCCCGCTTGGGTTCTAACCTGTTGCCA (site GGTCCCGCTTG) | 1.77
